Read-outs that look alike come from different tables or passages of the source. Square brackets hold non-standard residues; d marks the D form. Peptide text beside a SMILES is read from it. * marks the point of attachment. Tyr(3,5-(NO2)2) = N[C@@H](Cc1cc([N+](=O)[O-])c(O)c([N+](=O)[O-])c1)C(=O)O; His(Trt) = N[C@@H](Cc1cn(C(c2ccccc2)(c2ccccc2)c2ccccc2)cn1)C(=O)O; dHis(Trt) = N[C@H](Cc1cn(C(c2ccccc2)(c2ccccc2)c2ccccc2)cn1)C(=O)O; His(τ-CHPh2) = N[C@@H](Cc1cn(C(c2ccccc2)c2ccccc2)cn1)C(=O)O; Biotin = O=C1N[C@H]2[C@H](CS[C@H]2CCCCC(=O)*)N1; sY = N[C@@H](Cc1ccc(OS(=O)(=O)O)cc1)C(=O)O; Bip = N[C@@H](Cc1ccc(-c2ccccc2)cc1)C(=O)O; dPhe(4-Cl) = N[C@H](Cc1ccc(Cl)cc1)C(=O)O; dPhe(4-Me) = Cc1ccc(C[C@@H](N)C(=O)O)cc1; Myristoyl = CCCCCCCCCCCCCC(=O)*; Decanoyl = CCCCCCCCCC(=O)*; Octanoyl = CCCCCCCC(=O)*
Key:
GPR39 [1] = biological target: T1, GPR39 (Homo sapiens, UniProt O43194)
T1 sequence (O43194 1-453): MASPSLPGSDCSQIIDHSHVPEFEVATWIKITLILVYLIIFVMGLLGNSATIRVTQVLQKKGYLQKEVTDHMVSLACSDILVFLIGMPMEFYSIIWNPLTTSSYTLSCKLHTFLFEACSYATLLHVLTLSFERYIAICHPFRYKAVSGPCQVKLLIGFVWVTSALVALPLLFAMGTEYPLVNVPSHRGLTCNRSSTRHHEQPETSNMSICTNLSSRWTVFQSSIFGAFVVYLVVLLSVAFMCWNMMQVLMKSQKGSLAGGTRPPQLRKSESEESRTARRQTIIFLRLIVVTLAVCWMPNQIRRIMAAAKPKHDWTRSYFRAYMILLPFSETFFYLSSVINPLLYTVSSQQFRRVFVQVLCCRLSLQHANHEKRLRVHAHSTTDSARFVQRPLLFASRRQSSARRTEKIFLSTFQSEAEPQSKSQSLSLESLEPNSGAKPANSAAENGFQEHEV
Experimental: (§1) Specifically, the fibroblast cell line CV-1 (1×10^5 cells/ml, Korea Cell Line Bank) was cultured in a 96 well cell culture plate for 24 hours, and then treated with GPR39 inserted into adenovirus and SRE (serum response element) luciferase at 50 MOI (multiplicity of infection) and 25 MOI virus for 3 hours, respectively, and then cultured for 24 hours.

GPR39 [2] = biological target: T1, GPR39; experiment: luciferase assay system (SRE luciferase reporter gene) for GPR39 in CV-1 cells; conditions: for EC50: EC50, CV-1 cells
Experimental: as §1

[3] = GPR39 and SRE luciferase adenovirus, treated 6 hours, luminometer

ECmax (-fold induction over basal) (GPR39 [1]) | EC50 (GPR39 [2]; [3]) [µM] | ECmax value (in words) (GPR39 [2]; comment on Table 3) | activity level for GPR39 (in words) (GPR39 [2]; comment on Table 3, listed as HIKFY-30) | Structure (SMILES) | activity level for GPR39 (in words) (GPR39 [2]; comment on Table 3, listed as HJKFY-30) | ECmax (-fold induction over basal) (GPR39 [2]; CV-1 cells, GPR39 and SRE luciferase adenovirus, treated 6 hours, luminometer)
20.51 ± 0.57 -fold induction over basal | 0.15 ± 0.01 |  |  | CCCCCCCC(=O)NCCCC[C@H](NC(=O)[C@@H](N)Cc1cn(C(c2ccccc2)(c2ccccc2)c2ccccc2)cn1)C(=O)N[C@@H](Cc1ccccc1)C(=O)N[C@@H](Cc1ccc(O)cc1)C(=O)O [HKFY-1, N6-octanoyl-N2-(Nt-trityl-L-histidyl)-L-lysyl-L-phenylalanyl-L-tyrosine] (H-[His(Trt)]K(Octanoyl)FY-OH) |  | 
15 ± 1.87 -fold induction over basal | 0.14 ± 0.07 |  |  | CCCCCCCC(=O)NCCCC[C@H](NC(=O)[C@H](Cc1cn(C(c2ccccc2)(c2ccccc2)c2ccccc2)cn1)NC(=O)CCCC[C@@H]1SC[C@@H]2NC(=O)N[C@@H]21)C(=O)N[C@@H](Cc1ccccc1)C(=O)N[C@@H](Cc1ccc(O)cc1)C(=O)O [HKFY-2, N6-octanoyl-N2-(Na-(5-((3aS,4S,6aR)-2-oxohexahydro-1H-thieno[3,4-d]imidazol-4-yl)pentanoyl)-Nt-trityl-L-histidyl)-L-lysyl-L-phenylalanyl-L-tyrosine] (Biotin-[His(Trt)]K(Octanoyl)FY-OH) |  | 
16 ± 1.7 -fold induction over basal | 1.84 ± 0.2 |  |  | CCCCCCCC(=O)NCCCC[C@H](NC(=O)[C@@H](N)Cc1cn(C(c2ccccc2)(c2ccccc2)c2ccc(C)cc2)cn1)C(=O)N[C@@H](Cc1ccccc1)C(=O)N[C@@H](Cc1ccc(O)cc1)C(=O)O [HKFY-5, N2-(Nt-(diphenyl(p-tolyl)methyl)-L-histidyl)-N6-octanoyl-L-lysyl-L-phenylalanyl-L-tyrosine] |  | 
20.9 ± 1.4 -fold induction over basal | 0.02 ± 0.003 |  |  | CCCCCCCC(=O)NCCCC[C@H](NC(=O)[C@H](N)Cc1cn(C(c2ccccc2)(c2ccccc2)c2ccccc2)cn1)C(=O)N[C@H](Cc1ccc(Cl)cc1)C(=O)N[C@H](Cc1ccc(O)cc1)C(=O)O [HKFY-14, ((R)-2-((S)-2-((R)-2-amino-3-(1-trityl-1H-imidazol-4-yl)propanamido)-6-octanamidohexanamido)-3-(4-chlorophenyl)propanoyl)-D-tyrosine] (H-[dHis(Trt)]K(Octanoyl)[dPhe(4-Cl)][dY]-OH) |  | 
27.9 ± 3.4 -fold induction over basal | 0.24 ± 0.02 |  |  | CCCCCCCC(=O)NCCCC[C@@H](NC(=O)[C@@H](N)Cc1cn(C(c2ccccc2)(c2ccccc2)c2ccccc2)cn1)C(=O)N[C@H](Cc1ccc(Cl)cc1)C(=O)N[C@@H](Cc1ccc(O)cc1)C(=O)O [HKFY-16, ((R)-2-((R)-2-((S)-2-amino-3-(1-trityl-1H-imidazol-4-yl)propanamido)-6-octanamidohexanamido)-3-(4-chlorophenyl)propanoyl)-L-tyrosine] (H-[His(Trt)][dK](Octanoyl)[dPhe(4-Cl)]Y-OH) |  | 
7.03 ± 0.57 -fold induction over basal | 0.24 ± 0.07 |  |  | CCCCCCCCCC(=O)NCCCC[C@H](NC(=O)[C@@H](N)Cc1cn(C(c2ccccc2)(c2ccccc2)c2ccccc2)cn1)C(=O)N[C@@H](Cc1ccccc1)C(=O)N[C@@H](Cc1ccc(O)cc1)C(=O)O [HKFY-24, N6-decanoyl-N2-(Nt-trityl-L-histidyl)-L-lysyl-L-phenylalanyl-L-tyrosine] (H-[His(Trt)]K(Decanoyl)FY-OH) |  | 
19.82 ± 0.57 -fold induction over basal | 0.28 ± 0.02 |  |  | CCCCCCCCCCCCCC(=O)NCCCC[C@H](NC(=O)[C@@H](N)Cc1cn(C(c2ccccc2)(c2ccccc2)c2ccccc2)cn1)C(=O)N[C@@H](Cc1ccccc1)C(=O)N[C@@H](Cc1ccc(O)cc1)C(=O)O [HKFY-26, N6-tetradecanoyl-N2-(Nt-trityl-L-histidyl)-L-lysyl-L-phenylalanyl-L-tyrosine] (H-[His(Trt)]K(Myristoyl)FY-OH) |  | 
23.88 ± 3.04 -fold induction over basal | 0.008 ± 0.001 | high ECmax value | most excellent activity | CCCCCCCC(=O)NCCCC[C@H](NC(=O)[C@@H](N)Cc1cn(C(c2ccccc2)(c2ccccc2)c2ccccc2)cn1)C(=O)N[C@H](Cc1ccc(C)cc1)C(=O)N[C@@H](Cc1ccc(O)cc1)C(=O)O [HKFY-30, ((R)-2-((S)-2-((S)-2-amino-3-(1-trityl-1H-imidazol-4-yl)propanamido)-6-octanamidohexanamido)-3-(p-tolyl)propanoyl)-L-tyrosine] (H-[His(Trt)]K(Octanoyl)[dPhe(4-Me)]Y-OH) | higher activity level than other HJKFY derivatives | 
20.9 ± 2.51 -fold induction over basal | 0.02 ± 0.003 |  |  | CCCCCCCC(=O)NCCCC[C@H](NC(=O)[C@H](N)Cc1cn(C(c2ccccc2)(c2ccccc2)c2ccccc2)cn1)C(=O)N[C@H](Cc1ccc(C)cc1)C(=O)N[C@@H](Cc1ccc(O)cc1)C(=O)O [HKFY-31, ((R)-2-((S)-2-((R)-2-amino-3-(1-trityl-1H-imidazol-4-yl)propanamido)-6-octanamidohexanamido)-3-(p-tolyl)propanoyl)-L-tyrosine] (H-[dHis(Trt)]K(Octanoyl)[dPhe(4-Me)]Y-OH) |  | 
20 ± 0.57 -fold induction over basal | 0.15 ± 0.07 |  |  | CCCCCCCC(=O)NCCCC[C@H](NC(=O)[C@@H](N)Cc1cn(C(c2ccccc2)c2ccccc2)cn1)C(=O)N[C@@H](Cc1ccccc1)C(=O)N[C@@H](Cc1ccc(O)cc1)C(=O)O [HKFY-33, N2-(Nt-benzhydryl-L-histidyl)-N6-octanoyl-L-lysyl-L-phenylalanyl-L-tyrosine] (H-[His(τ-CHPh2)]K(Octanoyl)FY-OH) |  | 
18.9 ± 0.41 -fold induction over basal | 0.28 ± 0.07 |  |  | CCCCCCCC(=O)NCCCC[C@H](NC(=O)[C@@H](N)Cc1cn(C(c2ccccc2)c2ccccc2)cn1)C(=O)N[C@H](Cc1ccc(C)cc1)C(=O)N[C@@H](Cc1ccc(OS(=O)(=O)O)cc1)C(=O)O [HKFY-35, (S)-2-((R)-2-((S)-2-((S)-2-amino-3-(1-benzhydryl-1H-imidazol-4-yl)propanamido)-6-octanamidohexanamido)-3-(p-tolyl)propanamido)-3-(4-(sulfooxy)phenyl)propanoic acid] (H-[His(τ-CHPh2)]K(Octanoyl)[dPhe(4-Me)][sY]-OH) |  | 
16 ± 1.7 -fold induction over basal | 1.84 ± 0.2 |  |  | CCCCCCCC(=O)NCCCC[C@H](NC(=O)[C@H](Cc1cn(C(c2ccccc2)(c2ccccc2)c2ccccc2)cn1)NC(=O)[C@H](CO)NC(=O)CN)C(=O)N[C@@H](Cc1ccccc1)C(=O)N[C@@H](Cc1ccc(O)cc1)C(=O)O [HKFY-37, N2-(Na-glycyl-L-seryl-Nt-trityl-L-histidyl)-N6-octanoyl-L-lysyl-L-phenylalanyl-L-tyrosine] (H-GS[His(Trt)]K(Octanoyl)FY-OH) |  | 
21 ± 2.58 -fold induction over basal | 0.14 ± 0.05 |  |  | CCCCCCCC(=O)NCCCC[C@H](NC(=O)[C@H](Cc1cn(C(c2ccccc2)(c2ccccc2)c2ccccc2)cn1)NC(=O)CCCC[C@@H]1SC[C@@H]2NC(=O)N[C@@H]21)C(=O)N[C@@H](Cc1ccc(-c2ccccc2)cc1)C(=O)N[C@@H](Cc1ccc(O)cc1)C(=O)O [HKFY-45, ((S)-3-([1,1′-biphenyl]-4-yl)-2-((S)-6-octanamido-2-((S)-2-(5-((3aS,4S,6aR)-2-oxohexahydro-1H-thieno[3,4-d]imidazol-4-yl)pentanamido)-3-(1-trityl-1H-imidazol-4-yl)propanamido)hexanamido)propanoyl)-L-tyrosine] (Biotin-[His(Trt)]K(Octanoyl)[Bip]Y-OH) |  | 
20 ± 0.28 -fold induction over basal | 0.26 ± 0.15 |  |  | CCCCCCCC(=O)NCCCC[C@H](NC(=O)[C@@H](N)Cc1cn(C(c2ccccc2)(c2ccccc2)c2ccccc2)cn1)C(=O)N[C@@H](Cc1ccccc1)C(=O)N[C@@H](Cc1c[nH]c2ccccc12)C(=O)O [HKFY-46, N6-octanoyl-N2-(Nt-trityl-L-histidyl)-L-lysyl-L-phenylalanyl-L-tryptophan] (H-[His(Trt)]K(Octanoyl)FW-OH) |  | 
8.5 ± 2.3 -fold induction over basal | 0.26 ± 0.01 |  |  | CCCCCCCC(=O)NCCCC[C@H](NC(=O)[C@@H](N)Cc1c[nH]c(-c2ccccc2)n1)C(=O)N[C@H](Cc1ccc(C)cc1)C(=O)N[C@@H](Cc1ccc(O)cc1)C(=O)O [HKFY-57, ((R)-2-((S)-2-((S)-2-amino-3-(2-phenyl-1H-imidazol-4-yl)propanamido)-6-octanamidohexanamido)-3-(p-tolyl)propanoyl)-L-tyrosine] |  | 
 |  |  |  | CCCCCCCC(=O)NCCCC[C@H](NC(=O)[C@@H](N)Cc1cn(C(c2ccccc2)c2ccccc2)cn1)C(=O)N[C@H](Cc1ccc(C)cc1)C(=O)N[C@@H](Cc1cc([N+](=O)[O-])c(O)c([N+](=O)[O-])c1)C(=O)O [HKFY-69, (S)-2-((R)-2-((S)-2-((S)-2-amino-3-(1-benzhydryl-1H-imidazol-4-yl)propanamido)-6-octanamidohexanamido)-3-(p-tolyl)propanamido)-3-(4-hydroxy-3,5-dinitrophenyl)propanoic acid] (H-[His(τ-CHPh2)]K(Octanoyl)[dPhe(4-Me)][Tyr(3,5-(NO2)2)]-OH) |  | 12.2 ± 2.5 -fold induction over basal
